# Reference: PMC12502564, “Evaluation of LLM-generated peptide as foundation template for discovery of effective encrypted AMPs against clinical superbugs” (Microbiology Spectrum, 2025)
# No end group written: not given here.
# Legend:
# CRAB 2210186 [1] = format: cell-based, carbapenem-resistant Acinetobacter baumannii
# Description: (§1) The MIC of all peptides was determined using the microdilution broth method in a 96-well plate. Peptides were dissolved in the DMSO with an initial concentration of 12,800 µg mL^−1. And cells of eight strains were separately suspended in the MHB at a density of approximately 10^5 CFU mL^−1. In the first column of the 96-well plate, 16 µL of peptide and 184 µL of MHB were added to each well to achieve a final concentration of 1,024 µg mL^−1. One-hundred microliters of MHB was added to each of the remaining wells. Then the first column of liquid was mixed well and diluted to the 12th column using the twofold dilution method. One-hundred microliters of prepared bacterial solution was added to all wells, and the 96-well plate was incubated at 37°C for 18–24 h. The MIC was defined as the concentration of the peptide in the well just preceding the first well showing visible turbidity. All experiments were performed in triplicate to ensure reliability.
# CRPA 2403282 = format: cell-based, carbapenem-resistant P. aeruginosa
# Description: as §1
# CRKP 2403276 = format: cell-based, carbapenem-resistant K. pneumoniae
# Description: as §1
# sheep red blood cells = assay: Hemolysis test; format: cell-based; settings: 4% sheep red blood cell suspension in PBS, 37°C, 1 h, OD 450 nm, log2-transformed
# Description: Freshly collected sheep red blood cells, provided by Solarbio (Beijing, China), were washed three times with PBS to prepare a red blood cell suspension (2,000 rpm). Subsequently, the resulting red blood cells were suspended in 1 × PBS buffer and adjusted to a 4% red blood cell suspension. In a 96-well plate, perform twofold serial dilutions of the test peptides in 1 × PBS to final concentrations of 512, 256, 128, 64, 32, 16, 8, 4, 2, 1, 0.5, and 0.25 µg mL^−1 in each well. Use Triton X-100 as a positive control and 1 × PBS buffer as a negative control. Take 100 µL of red blood cell solution and 100 µL of peptide solutions with different concentration gradients and control solutions, add them to a new 96-well plate, and incubate at 37°C for 1 h. Subsequently, the 96-well plate was centrifuged at 4,000 rpm for 10 min, and the supernatant was collected into a 96-well plate for later use. Then the absorbance was measured at a wavelength of 450 nm using a microplate reader. All experiments were repeated in three parallel groups and averaged. The hemolysis rate was calculated by the following formula and the IC50 value of each AMPs was calculated by online tools: https://www.aatbio.com/tools/ic50-calculator.
# (1) Hemolysis rate (%)=OD(AMP)− OD(PBS)/OD(TritonX−100)− OD(PBS)×100%
# CRAB [2] = assay: MBC determination, MBC/MIC ratio; format: cell-based, carbapenem-resistant Acinetobacter baumannii; settings: MBC/MIC ≤4 is considered bactericidal
# Description: (§2) The MBC was determined using the microdilution broth method described above for MIC determination. After identifying the clear wells (no growth), 10 µL of the liquid from these wells was transferred and spread on a nutrient agar plate. The plate was incubated at 37°C for 18–24 h. […] The lowest concentration with no visible growth was considered the MBC.
# MRSA = assay: MBC determination, MBC/MIC ratio; format: cell-based, methicillin-resistant Staphylococcus aureus; settings: MBC/MIC ≤4 is considered bactericidal
# Description: as §2
# CRAB [3] = assay: Time-kill curve; format: cell-based, carbapenem-resistant Acinetobacter baumannii; settings: ~10^5 CFU mL^−1 in MH broth
# Description: Bacteria in the logarithmic growth phase were diluted to approximately 10^5 CFU mL^−1 in MH broth and treated with peptides, polymyxin B, or vancomycin at final concentrations of 1/2 × MIC, 1 × MIC, 2 × MIC, and 4 × MIC. After the addition of the test compound, samples were taken at 0, 3, 6, 9, 12, and 24 h and serially diluted. Subsequently, 5 µL of the diluted samples were spread on agar plates and incubated at 37°C for 20 h. The bacterial concentration CFU mL^−1 at the corresponding time point of each sample was calculated based on the number of colonies on the agar plate, and the log10 (CFU mL^−1) was plotted against time (h).
# CRAB [4] = assay: Outer membrane permeability assay (NPN); format: cell-based, carbapenem-resistant Acinetobacter baumannii; settings: 10^8 CFU mL^−1
# Description: NPN binds phospholipids in the periplasmic space, so NPN assay was carried out to analyze the effect of AMPs on the outer membrane permeabilization of bacteria ([65]). After CRAB was grown to the exponential phase, bacteria cells were harvested and washed three times in washing buffer of 5 mM glucose and 5 mM HEPES (1:1, pH = 7.2) and then re-adjusted to 10^8 CFU mL^−1 in same buffer. Bacterial suspensions (150 µL/well) were loaded into black-walled, clear-bottom 96-well plates with lids. Following bacterial loading, 50 µL of 10 µM NPN was introduced into each well, with 30-min pre-incubation for CRAB. Post-incubation fluorescence signals were acquired using 350 nm excitation and 420 nm emission wavelengths. Compounds (10 µL) were then administered to achieve 1 × MIC/10 × MIC -equivalent final concentrations in the dye-loaded bacterial suspensions. Real-time fluorescence monitoring was performed with continuous acquisition during the first 10 min, followed by measurements at 10-min intervals. Negative controls received 10 µL sterile water in lieu of antimicrobial peptides while maintaining equivalent pre-incubation conditions. All experimental conditions were executed with three biological replicates.
# CRAB [5] = assay: PI assay, cytoplasmic membrane integrity; format: cell-based, carbapenem-resistant Acinetobacter baumannii; settings: 1 × MIC, 10^8 CFU mL^−1
# Description: PI (which is known to stain nuclear chromatin upon cell membrane disruption) assay was carried out to evaluate the ability of AMPs to disrupt the cytoplasmic membrane integrity ([63]). After CRAB was grown to the exponential phase, bacteria cells were harvested and washed three times in washing buffer of 5 mM glucose and 5 mM HEPES (1:1, pH = 7.2) and then re-adjusted to 10^8 CFU mL^−1 in the same buffer. Bacterial suspensions (150 µL/well) were loaded into black-walled, clear-bottom 96-well plates with lids. Following bacterial loading, 50 µL of 10 µM PI was introduced into each well, with 30 min pre-incubation CRAB. Post-incubation fluorescence signals were acquired using 535 nm excitation and 617 nm emission wavelengths. Compounds (10 µL) were then administered to achieve 1 × MIC/10 × MIC-equivalent final concentrations in the dye-loaded bacterial suspensions. Real-time fluorescence monitoring was performed with continuous acquisition during the first 10 min, followed by measurements at 10-min intervals. Negative controls received 10 µL sterile water in lieu of antimicrobial peptides while maintaining equivalent pre-incubation conditions. All experimental conditions were executed with three biological replicates.
# CRAB 2210186 [6] = settings: 10% fetal bovine serum, room temperature, 1–6 h, then MIC assay, triplicate
# Description: For serum sensitivity experiments, the peptide to be tested was incubated in 10% fetal bovine serum at room temperature for 1–6 h. After deactivation, the MICs of peptides against CRAB 2210186 and MRSA 2210187 were measured using the MIC assay. All experiments were performed in triplicate to ensure reliability.
sequence,measurement,setting,value
WLKRILKWIGNKLKW [PL-15],MIC,CRAB 2210186 [1],4 µg/mL
same,MIC,CRPA 2403282,64 µg/mL
same,MIC,CRKP 2403276,lower than 11 µg mL^−1
same,log2IC50 (50% hemolytic concentration),sheep red blood cells,≥ 3
same,bactericidal classification by MBC/MIC ratio,CRAB [2],bactericidal effects
same,bactericidal classification by MBC/MIC ratio,MRSA,bactericidal effects
same,time to kill CRAB,CRAB [3]; 1/2 × MIC,≤ 6 h
same,time to kill CRAB,CRAB [3]; 1 × MIC,≤ 6 h
same,time to complete bacterial eradication of CRAB,CRAB [3]; 2 × MIC,≤ 3 h
same,time to kill CRAB,CRAB [3]; 4 × MIC,≤ 3 h
same,NPN fluorescence (outer membrane permeability),CRAB [4]; 1 × MIC,marginal increase in fluorescence intensity
same,NPN fluorescence (outer membrane permeability),CRAB [4]; 10 × MIC,rapid and significant increase in fluorescence intensity
same,PI fluorescence (cytoplasmic membrane integrity),CRAB [5],stronger fluorescence signal compared to polymyxin B and control
same,fold change in MIC after incubation in serum,CRAB 2210186 [6],maximum twofold increase
